PMC6886798, “Expression of myeloid Src-family kinases is associated with poor prognosis in AML and influences Flt3-ITD kinase inhibitor acquired resistance” (PLoS ONE, 2019)

Columns and labels:
FLT3(ITD,D835V) = experiment: KINOMEscan; format: binding, human; conditions: 1.0 µM
Protocol: (§1) Kinase retention to the immobilized ligand is then measured using quantitative real-time PCR for each kinase-specific DNA barcode.

EGFR(L747-T751del,Sins) = experiment: KINOMEscan; format: binding, human; conditions: 1.0 µM
Protocol: as §1

[1] = target: T1, TYK2(JH1domain-catalytic) (Homo sapiens, UniProt P29597); experiment: KINOMEscan; format: binding; conditions: 1.0 µM
T1 construct: TYK2(JH1domain-catalytic); DNA tag (qPCR barcode); purchased Eurofins/DiscoverX KINOMEscan scanMAX
Protocol: as §1

TLK1 = target: T2, TLK1 (Homo sapiens, UniProt Q9UKI8); experiment: KINOMEscan; format: binding; conditions: 1.0 µM
T2 construct: purchased Eurofins/DiscoverX KINOMEscan scanMAX
T2 sequence (Q9UKI8 whole entry): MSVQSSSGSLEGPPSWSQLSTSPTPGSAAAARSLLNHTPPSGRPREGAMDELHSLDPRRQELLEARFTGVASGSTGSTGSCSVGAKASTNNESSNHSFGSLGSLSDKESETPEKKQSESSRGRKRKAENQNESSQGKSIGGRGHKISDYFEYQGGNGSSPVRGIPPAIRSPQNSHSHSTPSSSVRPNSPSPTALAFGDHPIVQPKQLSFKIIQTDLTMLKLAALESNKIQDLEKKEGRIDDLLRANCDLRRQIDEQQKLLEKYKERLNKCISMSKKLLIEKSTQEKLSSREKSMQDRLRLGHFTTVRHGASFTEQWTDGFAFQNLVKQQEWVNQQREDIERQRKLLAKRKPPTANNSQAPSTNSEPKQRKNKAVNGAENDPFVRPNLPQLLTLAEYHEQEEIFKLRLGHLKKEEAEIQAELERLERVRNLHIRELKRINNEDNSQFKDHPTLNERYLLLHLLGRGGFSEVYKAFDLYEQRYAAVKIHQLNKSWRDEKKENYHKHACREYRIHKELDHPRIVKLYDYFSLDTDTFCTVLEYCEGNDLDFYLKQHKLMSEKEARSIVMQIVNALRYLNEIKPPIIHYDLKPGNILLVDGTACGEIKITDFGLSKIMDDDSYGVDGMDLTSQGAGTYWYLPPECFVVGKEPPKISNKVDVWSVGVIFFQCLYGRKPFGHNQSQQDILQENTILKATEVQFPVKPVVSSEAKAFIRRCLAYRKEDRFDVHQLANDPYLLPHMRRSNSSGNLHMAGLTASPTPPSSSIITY
Protocol: as §1

SBK1 = target: T3, SBK1 (Homo sapiens, UniProt Q52WX2); experiment: KINOMEscan; format: binding; conditions: 1.0 µM
T3 construct: purchased Eurofins/DiscoverX KINOMEscan scanMAX
Protocol: as §1

PAK7 = target: T4, PAK7 (Homo sapiens, UniProt Q9P286); experiment: KINOMEscan; format: binding; conditions: 1.0 µM
T4 construct: purchased Eurofins/DiscoverX KINOMEscan scanMAX
Protocol: as §1

MEK3 = target: T5, MEK3 (Homo sapiens, UniProt P46734); experiment: KINOMEscan; format: binding; conditions: 1.0 µM
T5 construct: purchased Eurofins/DiscoverX KINOMEscan scanMAX
Protocol: as §1

PIK3CA(M1043I) = target: T6, PIK3CA(M1043I) (Homo sapiens, UniProt P42336, M1043I); experiment: KINOMEscan; format: binding; conditions: 1.0 µM
T6 construct: purchased Eurofins/DiscoverX KINOMEscan scanMAX
T6 sequence (P42336 whole entry M1043I): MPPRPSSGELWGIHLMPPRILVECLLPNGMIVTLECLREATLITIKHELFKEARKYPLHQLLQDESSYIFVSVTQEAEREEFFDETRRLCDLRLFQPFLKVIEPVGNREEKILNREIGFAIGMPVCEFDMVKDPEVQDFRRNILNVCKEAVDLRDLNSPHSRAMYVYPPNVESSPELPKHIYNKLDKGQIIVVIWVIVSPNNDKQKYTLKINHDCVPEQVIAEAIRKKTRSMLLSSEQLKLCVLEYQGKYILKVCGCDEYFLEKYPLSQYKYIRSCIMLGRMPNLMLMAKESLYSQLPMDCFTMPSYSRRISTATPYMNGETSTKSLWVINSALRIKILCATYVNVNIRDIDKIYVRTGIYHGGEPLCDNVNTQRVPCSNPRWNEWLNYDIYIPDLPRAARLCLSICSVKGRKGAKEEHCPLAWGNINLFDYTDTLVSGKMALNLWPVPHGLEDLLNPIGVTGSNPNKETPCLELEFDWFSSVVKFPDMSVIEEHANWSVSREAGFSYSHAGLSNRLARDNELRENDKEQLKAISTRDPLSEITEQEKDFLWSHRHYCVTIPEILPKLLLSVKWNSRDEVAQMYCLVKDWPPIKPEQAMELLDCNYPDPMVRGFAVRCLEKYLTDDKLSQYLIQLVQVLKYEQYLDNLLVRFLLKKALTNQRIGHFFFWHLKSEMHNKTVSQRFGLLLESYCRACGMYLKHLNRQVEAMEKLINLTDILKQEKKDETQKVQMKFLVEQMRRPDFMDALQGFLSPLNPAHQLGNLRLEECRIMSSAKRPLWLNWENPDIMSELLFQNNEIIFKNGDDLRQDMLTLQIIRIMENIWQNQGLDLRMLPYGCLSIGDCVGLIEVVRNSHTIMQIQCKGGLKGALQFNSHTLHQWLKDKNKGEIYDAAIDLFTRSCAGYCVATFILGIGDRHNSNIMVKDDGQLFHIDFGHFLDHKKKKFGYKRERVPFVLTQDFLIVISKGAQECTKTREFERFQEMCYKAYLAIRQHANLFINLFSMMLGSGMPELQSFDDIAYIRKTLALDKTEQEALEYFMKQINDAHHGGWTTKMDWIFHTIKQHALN
Protocol: as §1

ULK2 = target: T7, ULK2 (Homo sapiens, UniProt Q8IYT8); experiment: KINOMEscan; format: binding; conditions: 1.0 µM
T7 construct: DNA tag (qPCR barcode); purchased Eurofins/DiscoverX KINOMEscan scanMAX
Protocol: as §1

[2] = target: T8, RSK4(Kin.Dom.2-C-terminal) (Homo sapiens, UniProt Q9UK32); experiment: KINOMEscan; format: binding; conditions: 1.0 µM
T8 construct: RSK4(Kin.Dom.2-C-terminal); purchased Eurofins/DiscoverX KINOMEscan scanMAX
Protocol: as §1

OSR1 = target: T9, OSR1 (Homo sapiens, UniProt O95747); experiment: KINOMEscan; format: binding; conditions: 1.0 µM
T9 construct: purchased Eurofins/DiscoverX KINOMEscan scanMAX
Protocol: as §1

IGF1R = target: T10, IGF1R (Homo sapiens, UniProt P08069); experiment: KINOMEscan; format: binding; conditions: 1.0 µM
T10 construct: purchased Eurofins/DiscoverX KINOMEscan scanMAX
Protocol: as §1

FES = target: T11, FES (Homo sapiens, UniProt P07332); experiment: KINOMEscan; format: binding; conditions: 1.0 µM
T11 construct: purchased Eurofins/DiscoverX KINOMEscan scanMAX
Protocol: as §1

BUB1 = target: T12, BUB1 (Homo sapiens, UniProt O43683); experiment: KINOMEscan; format: binding; conditions: 1.0 µM
T12 construct: purchased Eurofins/DiscoverX KINOMEscan scanMAX
Protocol: as §1

MYLK4 = target: T13, MYLK4 (Homo sapiens, UniProt Q86YV6); experiment: KINOMEscan; format: binding; conditions: 1.0 µM
T13 construct: purchased Eurofins/DiscoverX KINOMEscan scanMAX
Protocol: as §1

STK36 = target: T14, STK36 (Homo sapiens, UniProt Q9NRP7); experiment: KINOMEscan; format: binding; conditions: 1.0 µM
T14 construct: purchased Eurofins/DiscoverX KINOMEscan scanMAX
Protocol: as §1

ABL1-nonphosphorylated = target: T15, ABL1-nonphosphorylated (Homo sapiens, UniProt P00519); experiment: KINOMEscan; format: binding; conditions: 1.0 µM
T15 construct: purchased Eurofins/DiscoverX KINOMEscan scanMAX
Protocol: as §1

MAP3K1 = target: T16, MAP3K1 (Homo sapiens, UniProt Q13233); experiment: KINOMEscan; format: binding; conditions: 1.0 µM
T16 construct: purchased Eurofins/DiscoverX KINOMEscan scanMAX
T16 sequence (Q13233 whole entry): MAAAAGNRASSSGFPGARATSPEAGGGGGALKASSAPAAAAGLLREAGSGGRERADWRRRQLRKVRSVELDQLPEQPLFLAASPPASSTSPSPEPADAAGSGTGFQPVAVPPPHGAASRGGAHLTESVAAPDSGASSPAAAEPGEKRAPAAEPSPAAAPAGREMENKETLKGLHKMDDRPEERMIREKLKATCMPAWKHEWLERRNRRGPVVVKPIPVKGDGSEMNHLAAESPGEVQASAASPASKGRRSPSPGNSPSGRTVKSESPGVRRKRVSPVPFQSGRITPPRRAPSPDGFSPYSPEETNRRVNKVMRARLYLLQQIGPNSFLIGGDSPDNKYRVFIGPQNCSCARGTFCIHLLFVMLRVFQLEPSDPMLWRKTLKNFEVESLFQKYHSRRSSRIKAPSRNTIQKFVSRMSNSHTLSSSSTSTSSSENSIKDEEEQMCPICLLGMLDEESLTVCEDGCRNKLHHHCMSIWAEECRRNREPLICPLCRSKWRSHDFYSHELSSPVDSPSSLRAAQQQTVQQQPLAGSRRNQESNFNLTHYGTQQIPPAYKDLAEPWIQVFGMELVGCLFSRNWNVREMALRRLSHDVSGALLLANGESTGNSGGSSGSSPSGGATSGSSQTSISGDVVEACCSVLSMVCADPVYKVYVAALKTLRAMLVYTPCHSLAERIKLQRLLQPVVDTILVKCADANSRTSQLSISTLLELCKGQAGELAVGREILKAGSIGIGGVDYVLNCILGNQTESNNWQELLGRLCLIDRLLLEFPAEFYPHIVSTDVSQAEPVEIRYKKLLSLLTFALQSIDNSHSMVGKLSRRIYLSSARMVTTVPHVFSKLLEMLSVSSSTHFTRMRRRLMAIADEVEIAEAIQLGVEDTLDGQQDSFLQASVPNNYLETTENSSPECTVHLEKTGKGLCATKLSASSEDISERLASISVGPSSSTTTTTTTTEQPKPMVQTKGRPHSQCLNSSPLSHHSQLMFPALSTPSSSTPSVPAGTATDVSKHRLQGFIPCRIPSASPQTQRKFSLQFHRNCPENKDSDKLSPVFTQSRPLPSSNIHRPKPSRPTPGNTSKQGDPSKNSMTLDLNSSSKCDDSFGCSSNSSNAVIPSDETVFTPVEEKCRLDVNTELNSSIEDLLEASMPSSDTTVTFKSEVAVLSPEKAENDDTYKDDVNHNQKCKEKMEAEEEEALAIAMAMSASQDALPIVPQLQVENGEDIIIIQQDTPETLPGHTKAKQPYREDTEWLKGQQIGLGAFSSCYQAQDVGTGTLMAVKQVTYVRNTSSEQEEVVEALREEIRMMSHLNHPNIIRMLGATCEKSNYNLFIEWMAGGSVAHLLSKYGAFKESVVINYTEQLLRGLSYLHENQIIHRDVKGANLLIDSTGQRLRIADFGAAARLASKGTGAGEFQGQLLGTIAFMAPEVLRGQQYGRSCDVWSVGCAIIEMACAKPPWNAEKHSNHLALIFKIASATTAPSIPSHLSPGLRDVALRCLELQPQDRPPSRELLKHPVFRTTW
Protocol: as §1

CAMK4 = target: T17, CAMK4 (Homo sapiens, UniProt Q16566); experiment: KINOMEscan; format: binding; conditions: 1.0 µM
T17 construct: purchased Eurofins/DiscoverX KINOMEscan scanMAX
T17 sequence (Q16566 whole entry): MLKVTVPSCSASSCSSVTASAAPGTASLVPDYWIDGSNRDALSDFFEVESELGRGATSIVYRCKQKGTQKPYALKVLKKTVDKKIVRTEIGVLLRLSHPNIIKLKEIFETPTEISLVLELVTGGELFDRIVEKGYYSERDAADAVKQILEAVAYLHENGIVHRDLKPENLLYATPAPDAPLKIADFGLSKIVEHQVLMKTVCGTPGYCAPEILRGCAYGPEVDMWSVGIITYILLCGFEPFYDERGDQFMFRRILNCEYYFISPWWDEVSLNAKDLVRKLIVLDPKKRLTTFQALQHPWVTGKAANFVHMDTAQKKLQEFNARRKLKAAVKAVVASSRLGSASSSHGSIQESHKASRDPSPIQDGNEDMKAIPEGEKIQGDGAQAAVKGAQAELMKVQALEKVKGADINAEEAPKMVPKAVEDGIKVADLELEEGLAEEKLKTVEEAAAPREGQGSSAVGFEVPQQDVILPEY
Protocol: as §1

ERK1 = target: T18, ERK1 (Homo sapiens, UniProt P27361); experiment: KINOMEscan; format: binding; conditions: 1.0 µM
T18 construct: purchased Eurofins/DiscoverX KINOMEscan scanMAX
Protocol: as §1

BMPR2 = target: T19, BMPR2 (Homo sapiens, UniProt Q13873); experiment: KINOMEscan; format: binding; conditions: 1.0 µM
T19 construct: purchased Eurofins/DiscoverX KINOMEscan scanMAX
Protocol: as §1

JNK1 = target: T20, JNK1 (Homo sapiens, UniProt P45983); experiment: KINOMEscan; format: binding; conditions: 1.0 µM
T20 construct: purchased Eurofins/DiscoverX KINOMEscan scanMAX
Protocol: as §1

CSNK1D = target: T21, CSNK1D (Homo sapiens, UniProt P48730); experiment: KINOMEscan; format: binding; conditions: 1.0 µM
T21 construct: purchased Eurofins/DiscoverX KINOMEscan scanMAX
T21 sequence (P48730 whole entry): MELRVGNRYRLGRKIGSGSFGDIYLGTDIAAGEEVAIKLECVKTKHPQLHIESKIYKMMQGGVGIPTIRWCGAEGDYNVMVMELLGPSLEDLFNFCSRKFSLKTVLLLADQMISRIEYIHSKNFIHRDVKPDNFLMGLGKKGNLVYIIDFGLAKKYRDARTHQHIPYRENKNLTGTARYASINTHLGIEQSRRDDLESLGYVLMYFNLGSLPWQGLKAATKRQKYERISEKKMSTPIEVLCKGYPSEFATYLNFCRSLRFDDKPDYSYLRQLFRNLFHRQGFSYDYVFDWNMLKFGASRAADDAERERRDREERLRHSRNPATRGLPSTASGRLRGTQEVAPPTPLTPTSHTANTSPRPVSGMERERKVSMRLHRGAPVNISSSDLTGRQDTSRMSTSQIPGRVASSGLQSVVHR
Protocol: as §1

DCAMKL1 = target: T22, DCAMKL1 (Homo sapiens, UniProt O15075); experiment: KINOMEscan; format: binding; conditions: 1.0 µM
T22 construct: purchased Eurofins/DiscoverX KINOMEscan scanMAX
Protocol: as §1

[3] = target: T23, ABL1(T315I)-phosphorylated (Homo sapiens, UniProt P00519, T315I); experiment: KINOMEscan; format: binding; conditions: 1.0 µM
T23 construct: purchased Eurofins/DiscoverX KINOMEscan scanMAX
Protocol: as §1

[4] = target: T24, RPS6KA5(Kin.Dom.1-N-terminal) (Homo sapiens, UniProt O75582); experiment: KINOMEscan; format: binding; conditions: 1.0 µM
T24 construct: RPS6KA5(Kin.Dom.1-N-terminal); purchased Eurofins/DiscoverX KINOMEscan scanMAX
T24 sequence (O75582 49-387 limits assumed): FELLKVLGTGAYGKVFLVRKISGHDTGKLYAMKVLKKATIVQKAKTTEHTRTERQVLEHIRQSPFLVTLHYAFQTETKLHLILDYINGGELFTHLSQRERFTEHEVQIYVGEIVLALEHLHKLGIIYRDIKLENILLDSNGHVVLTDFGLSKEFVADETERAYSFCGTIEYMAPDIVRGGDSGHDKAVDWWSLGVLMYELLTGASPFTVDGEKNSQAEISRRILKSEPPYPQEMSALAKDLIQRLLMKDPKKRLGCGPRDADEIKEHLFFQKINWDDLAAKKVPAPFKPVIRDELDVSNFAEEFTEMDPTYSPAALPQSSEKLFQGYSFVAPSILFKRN
Protocol: as §1

SYK = target: T25, SYK (Homo sapiens, UniProt P43405); experiment: KINOMEscan; format: binding; conditions: 1.0 µM
T25 construct: purchased Eurofins/DiscoverX KINOMEscan scanMAX
Protocol: as §1

ERK8 = target: T26, ERK8 (Homo sapiens, UniProt Q8TD08); experiment: KINOMEscan; format: binding; conditions: 1.0 µM
T26 construct: purchased Eurofins/DiscoverX KINOMEscan scanMAX
Protocol: as §1

WNK3 = target: T27, WNK3 (Homo sapiens, UniProt Q9BYP7); experiment: KINOMEscan; format: binding; conditions: 1.0 µM
T27 construct: DNA tag (qPCR barcode); purchased Eurofins/DiscoverX KINOMEscan scanMAX
Protocol: as §1

TAOK2 = target: T28, TAOK2 (Homo sapiens, UniProt Q9UL54); experiment: KINOMEscan; format: binding; conditions: 1.0 µM
T28 construct: purchased Eurofins/DiscoverX KINOMEscan scanMAX
Protocol: as §1

MLK2 = target: T29, MLK2 (Homo sapiens, UniProt Q02779); experiment: KINOMEscan; format: binding; conditions: 1.0 µM
T29 construct: purchased Eurofins/DiscoverX KINOMEscan scanMAX
Protocol: as §1

Fgr T338L = target: T30, Fgr T338L (Homo sapiens, UniProt P09769, T334L); experiment: Z'-LYTE in vitro kinase assay; format: biochemical; conditions: read-out: A-419259 IC50, Fig 5B, ATP at Km, mean ± SE, three independent determinations
T30 construct: Recombinant near-full-length kinases, consisting of the SH2, SH3 and kinase domains plus the negative regulatory tail; made in house; host or cells: E. coli BL21Star (DE3), co-expressed with Csk and PTP1B
Protocol: Assays were performed in quadruplicate in 384-well low volume, non-binding, black polystyrene microplates (Corning) according to the manufacturer’s instructions. Briefly, this assay measures phosphorylation of the Tyr2 peptide substrate which is tagged with coumarin and fluorescein on its N- and C-termini, respectively, to form a FRET pair. After the kinase reaction, a development step involves site-specific proteolytic cleavage of the unphosphorylated but not the phosphorylated peptide. […] Kinase reactions were run in 50 mM HEPES, pH 7.5, 10 mM MgCl2, 1 mM EGTA, and 0.01% BRIJ-35 (buffer supplied by the manufacturer). […] Following incubation for 1 h at ambient temperature, reactions were quenched by addition of the development protease, and coumarin and fluorescein fluorescence were measured 1 h later on a Molecular Devices SpectraMax M5 plate reader. […] For experiments with inhibitors, compounds were preincubated with kinase for 30 min prior to initiation of the reaction by the addition of ATP.

Lyn T338F = target: T31, Lyn T338F (Homo sapiens, UniProt P07948, T319F); experiment: Z'-LYTE in vitro kinase assay; format: biochemical; conditions: read-out: A-419259 IC50, Fig 5B, ATP at Km, mean ± SE, three independent determinations
T31 construct: Recombinant near-full-length kinases, consisting of the SH2, SH3 and kinase domains plus the negative regulatory tail; made in house; host or cells: E. coli BL21Star (DE3), co-expressed with Csk and PTP1B

Hck T338F = target: T32, Hck T338F (Homo sapiens, UniProt P08631, T333F); experiment: Z'-LYTE in vitro kinase assay; format: biochemical
T32 construct: Recombinant near-full-length kinases, consisting of the SH2, SH3 and kinase domains plus the negative regulatory tail; made in house; host or cells: E. coli BL21Star (DE3), co-expressed with Csk and PTP1B
T32 sequence (P08631 78-526 T333F limits assumed): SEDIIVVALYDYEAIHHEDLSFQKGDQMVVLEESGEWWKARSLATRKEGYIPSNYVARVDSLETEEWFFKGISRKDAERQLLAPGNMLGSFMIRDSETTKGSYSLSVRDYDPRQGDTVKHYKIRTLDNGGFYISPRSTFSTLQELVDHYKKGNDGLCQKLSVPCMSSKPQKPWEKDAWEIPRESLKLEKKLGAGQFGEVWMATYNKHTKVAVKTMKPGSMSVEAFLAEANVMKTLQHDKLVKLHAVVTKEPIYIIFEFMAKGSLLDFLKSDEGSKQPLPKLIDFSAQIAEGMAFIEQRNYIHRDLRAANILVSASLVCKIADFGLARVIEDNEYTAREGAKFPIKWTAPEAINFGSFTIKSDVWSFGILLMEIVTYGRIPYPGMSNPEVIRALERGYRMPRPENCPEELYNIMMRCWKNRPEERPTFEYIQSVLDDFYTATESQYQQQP

468 kinases = experiment: KINOMEscan scanMAX profile, overall selectivity; format: binding, human; conditions: 1 μM; 468 kinase targets
Lyn T338M = target: T33, Lyn T338M (Homo sapiens, UniProt P07948, T319M); experiment: Z'-LYTE in vitro kinase assay; format: biochemical; conditions: read-out: A-419259 IC50, Fig 5B, ATP at Km, mean ± SE, three independent determinations
T33 construct: Recombinant near-full-length kinases, consisting of the SH2, SH3 and kinase domains plus the negative regulatory tail; made in house; host or cells: E. coli BL21Star (DE3), co-expressed with Csk and PTP1B

LYN = target: T34, LYN (Homo sapiens, UniProt P07948); experiment: KINOMEscan; format: binding; conditions: 1.0 µM
T34 construct: purchased Eurofins/DiscoverX KINOMEscan scanMAX

LCK = target: T35, LCK (Homo sapiens, UniProt P06239); experiment: KINOMEscan; format: binding; conditions: 1.0 µM
T35 construct: purchased Eurofins/DiscoverX KINOMEscan scanMAX

Q: How did the “% Control” value (FLT3(ITD,D835V)) turn out when `CN1CCN(C2CCC(n3cc(-c4ccc(Oc5ccccc5)cc4)c4c(N)ncnc43)CC2)CC1` (stereo not drawn) [A-419259] was run?
A: Its value is 30%.

Q: What about the “% Control” value (EGFR(L747-T751del,Sins)) of the same molecule?
A: The value was 16%.

Q: What about the “% Control” value [1] of the same molecule?
A: The value was 100%.

Q: And the “% Control” value (TLK1)?
A: Its value is 93%.

Q: And the “% Control” value (SBK1)?
A: Its value is 96%.

Q: And the “% Control” value (PAK7)?
A: Its value is 89%.

Q: What about the “% Control” value (MEK3) of the same molecule?
A: Its value is 91%.

Q: What about the “% Control” value (PIK3CA(M1043I)) of the same molecule?
A: Its value is 100%.

Q: What about the “% Control” value (ULK2) of the same molecule?
A: Its value is 47%.

Q: What about the “% Control” value [2] of the same molecule?
A: Its value is 94%.

Q: What about the “% Control” value (OSR1) of the same molecule?
A: Its value is 100%.

Q: And the “% Control” value (IGF1R)?
A: Its value is 80%.

Q: What about the “% Control” value (FES) of the same molecule?
A: The value was 100%.

Q: What about the “% Control” value (BUB1) of the same molecule?
A: The value was 100%.

Q: And the “% Control” value (MYLK4)?
A: The value was 96%.

Q: And the “% Control” value (STK36)?
A: Its value is 18%.

Q: What about the “% Control” value (ABL1-nonphosphorylated) of the same molecule?
A: Its value is 0.1%.

Q: And the “% Control” value (MAP3K1)?
A: The value was 92%.

Q: What about the “% Control” value (CAMK4) of the same molecule?
A: Its value is 100%.

Q: And the “% Control” value (ERK1)?
A: Its value is 100%.

Q: What about the “% Control” value (BMPR2) of the same molecule?
A: Its value is 97%.

Q: What about the “% Control” value (JNK1) of the same molecule?
A: Its value is 95%.

Q: And the “% Control” value (CSNK1D)?
A: The value was 8.3%.

Q: And the “% Control” value (DCAMKL1)?
A: The value was 43%.

Q: And the “% Control” value [3]?
A: Its value is 83%.

Q: And the “% Control” value [4]?
A: The value was 77%.

Q: What about the “% Control” value (SYK) of the same molecule?
A: The value was 100%.

Q: What about the “% Control” value (ERK8) of the same molecule?
A: The value was 100%.

Q: And the “% Control” value (WNK3)?
A: Its value is 46%.

Q: What about the “% Control” value (TAOK2) of the same molecule?
A: Its value is 85%.

Q: And the “% Control” value (MLK2)?
A: The value was 29%.

Q: And the IC50 (Fgr T338L)?
A: The IC50 was 0.2184 ± 0.0011 µM.

Q: What about the IC50 (Lyn T338F) of the same molecule?
A: Its IC50 is 0.242 ± 0.0012 µM.

Q: What about the “reduction of kinase sensitivity to A-419259” value (Hck T338F; Hck gatekeeper threonine to phenylalanine, vs wild-type) of the same molecule?
A: The value was roughly 5 fold.

Q: What about the IC50 (Hck T338F; read-out: A-419259 IC50, Fig 5B, Hck T338F, ATP at Km, mean ± SE, three independent determinations) of the same molecule?
A: Its IC50 is 0.201 ± 0.001 µM.

Q: And the kinase interactions (468 kinases)?
A: The kinase interactions was 19.

Q: What about the IC50 (Lyn T338M) of the same molecule?
A: The IC50 was 0.1278 ± 0.001 µM.

Q: What about the “% Control” value (LYN) of the same molecule?
A: The value was 1.7%.

Q: And the “% Control” value (LCK)?
A: Its value is 2.3%.
